# Laboratory results published in PMC7179119, “A New Positron Emission Tomography Probe for Orexin Receptors Neuroimaging” (Molecules, 2020).
# Like-named read-outs stand apart in the source and are kept apart here.
# Tests used:
# [1] = Assessment of Lipophilicity (Log D; pH 7.4); assay type: physicochemical
# Protocol: Log D was determined according to methods identical to those we previously reported.
# 40 other CNS targets = experiment: Off-target binding (NIMH PDSP); conditions: 10 µM
# Protocol: Table S1. Off binding data of CW24.
# The off-target binding assays were performed at PDSP with their standard protocol (https://pdspdb.unc.edu/pdspWeb/content/UNC-CH%20Protocol%20Book.pdf). In radioligand binding assays, CW24 was tested at a single concentration (10 µM) and in quadruplicate in 96-well plates. The binding assays were carried out in a final of volume of 125 µl per well in appropriate binding buffers. The hot ligand concentration is usually at a concentration close to the Kd (unless otherwise indicated). Total binding and nonspecific binding are determined in the absence and presence of 10 µM of the appropriate reference compound, respectively. In brief, plates are usually incubated at room temperature and in the dark for 90 mins. Reactions are stopped by vacuum filtration onto 0.3% polyethyleneimine (PEI) soaked 96-well filter mats using a 96-well Filtermate harvester, followed by three washes with cold wash buffers (for details, see Tables 2 to 24). Scintillation cocktail is then melted onto the microwave-dried filters on a hot plate and radioactivity is counted in a Microbeta counter.
# Receptor % Inhibition 1 % Inhibition 2 % Inhibition 3 % Inhibition 4 Mean±SD %
# Beta2 = target: T1, Beta2 (Homo sapiens, UniProt P07550); experiment: PDSP off-target radioligand binding assay
# T1 construct: NIMH PDSP
# Method in brief: (§1)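 Compound tested at a single 10 µM concentration in quadruplicate in competition with radioligand near its Kd. Nonspecific binding was defined with 10 µM reference compound, incubation was 90 min at room temperature in the dark, and bound radioactivity was collected by filtration and scintillation counting to give % inhibition.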
# M4 = target: T2, M4 (Homo sapiens, UniProt P08173); experiment: PDSP off-target radioligand binding assay
# T2 sequence (P08173 1-479): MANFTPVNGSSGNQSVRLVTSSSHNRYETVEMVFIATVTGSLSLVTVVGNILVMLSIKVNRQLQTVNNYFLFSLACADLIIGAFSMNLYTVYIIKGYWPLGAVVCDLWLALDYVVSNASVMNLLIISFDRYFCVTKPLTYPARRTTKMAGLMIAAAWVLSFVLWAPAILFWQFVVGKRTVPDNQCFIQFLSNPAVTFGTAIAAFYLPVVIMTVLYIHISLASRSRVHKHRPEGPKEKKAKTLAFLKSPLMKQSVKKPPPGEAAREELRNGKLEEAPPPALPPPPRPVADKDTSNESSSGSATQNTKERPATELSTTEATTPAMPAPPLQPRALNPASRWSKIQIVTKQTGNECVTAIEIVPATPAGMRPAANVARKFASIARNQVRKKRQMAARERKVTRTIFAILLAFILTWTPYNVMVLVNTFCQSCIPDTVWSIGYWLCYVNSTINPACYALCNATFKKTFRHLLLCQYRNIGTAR
# Method in brief: as §1
# 5-HT6 = target: T3, 5-HT6 (Homo sapiens, UniProt P50406); experiment: PDSP off-target radioligand binding assay
# T3 construct: NIMH PDSP
# Method in brief: as §1
# [2] = target: T4, Human recombinant OX2 receptors (Homo sapiens, UniProt O43614); experiment: Human Orexin GPCR Binding (Agonist Radioligand) Assay, [125I] Orexin A competition
# T4 sequence (O43614 1-444): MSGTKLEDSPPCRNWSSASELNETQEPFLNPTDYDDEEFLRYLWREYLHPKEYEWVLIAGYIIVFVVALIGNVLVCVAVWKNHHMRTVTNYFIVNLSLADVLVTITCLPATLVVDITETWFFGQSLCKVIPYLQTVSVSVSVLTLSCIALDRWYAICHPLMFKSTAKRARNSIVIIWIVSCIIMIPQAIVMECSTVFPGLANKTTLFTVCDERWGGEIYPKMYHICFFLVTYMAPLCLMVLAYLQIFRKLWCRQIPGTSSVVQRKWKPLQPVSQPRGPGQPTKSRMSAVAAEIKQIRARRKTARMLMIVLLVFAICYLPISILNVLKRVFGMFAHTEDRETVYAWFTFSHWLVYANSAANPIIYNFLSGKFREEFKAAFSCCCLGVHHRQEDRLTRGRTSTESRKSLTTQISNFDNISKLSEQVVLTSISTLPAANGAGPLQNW
# Protocol: (§2) Radioligand competition binding assays were performed by Panlabs, Eurofins Pharma Discovery Services. Briefly, human recombinant orexin OX1 receptors expressed in CHO-S cells were used in modified HEPES buffer pH 7.4. […] Orexin A for 60 minutes at 25 °C. […] Orexin A specifically binding. Human recombinant OX2 receptors were used in modified HEPES buffer pH 7.4. […] Orexin A for 180 minutes at 25 °C. […] Orexin A specifically bound.
# [3] = target: T5, human recombinant orexin OX1 receptors (Homo sapiens, UniProt O43613); experiment: as above
# T5 construct: host or cells: CHO-S cells
# T5 sequence (O43613 1-425): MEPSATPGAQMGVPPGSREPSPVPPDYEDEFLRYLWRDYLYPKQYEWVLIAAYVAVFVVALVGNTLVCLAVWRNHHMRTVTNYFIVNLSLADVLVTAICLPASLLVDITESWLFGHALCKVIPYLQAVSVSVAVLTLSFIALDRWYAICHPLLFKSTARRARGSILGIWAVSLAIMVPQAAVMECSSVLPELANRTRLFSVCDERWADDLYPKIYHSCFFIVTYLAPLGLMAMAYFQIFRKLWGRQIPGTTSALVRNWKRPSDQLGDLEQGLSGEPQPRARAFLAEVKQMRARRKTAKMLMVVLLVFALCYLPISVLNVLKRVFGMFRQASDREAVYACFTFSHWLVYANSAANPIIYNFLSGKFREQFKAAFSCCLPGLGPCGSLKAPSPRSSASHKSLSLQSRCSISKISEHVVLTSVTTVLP
# Protocol: as §2
# [4] = quadruplicate, read-out: Mean±SD % inhibition
# [5] = replicate 1, read-out: % Inhibition 1
# [6] = replicate 2, read-out: % Inhibition 2
# [7] = replicate 3, read-out: % Inhibition 3
# [8] = replicate 4, read-out: % Inhibition 4
# T1 sequence (P07550 whole entry): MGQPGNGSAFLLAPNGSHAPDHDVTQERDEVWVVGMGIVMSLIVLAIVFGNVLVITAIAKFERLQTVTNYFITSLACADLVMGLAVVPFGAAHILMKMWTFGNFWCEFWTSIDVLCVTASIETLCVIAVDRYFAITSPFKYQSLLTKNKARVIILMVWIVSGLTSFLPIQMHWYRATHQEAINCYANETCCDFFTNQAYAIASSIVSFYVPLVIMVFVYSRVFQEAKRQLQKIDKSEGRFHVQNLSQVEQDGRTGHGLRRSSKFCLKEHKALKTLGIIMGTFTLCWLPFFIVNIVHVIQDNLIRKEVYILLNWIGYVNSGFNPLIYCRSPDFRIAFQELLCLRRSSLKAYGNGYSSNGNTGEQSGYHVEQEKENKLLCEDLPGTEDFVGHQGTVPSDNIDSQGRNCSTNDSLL
# T3 sequence (P50406 whole entry, species assumed): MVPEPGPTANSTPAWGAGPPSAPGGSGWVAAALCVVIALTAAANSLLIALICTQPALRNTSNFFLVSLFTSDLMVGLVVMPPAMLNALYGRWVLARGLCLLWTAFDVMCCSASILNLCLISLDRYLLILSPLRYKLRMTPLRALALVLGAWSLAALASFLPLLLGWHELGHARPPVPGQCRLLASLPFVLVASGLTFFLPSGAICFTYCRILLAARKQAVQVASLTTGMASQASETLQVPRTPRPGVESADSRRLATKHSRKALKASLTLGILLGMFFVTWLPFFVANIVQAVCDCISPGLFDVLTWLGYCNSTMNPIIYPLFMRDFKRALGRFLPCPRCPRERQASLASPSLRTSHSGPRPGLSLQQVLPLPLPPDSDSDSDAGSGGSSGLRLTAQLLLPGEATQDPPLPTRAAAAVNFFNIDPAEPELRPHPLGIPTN
smiles,measurement,setting,value
COc1ccnc(N2CCC3(CCCN(Cc4cn(C)c5ccccc45)C3=O)CC2)n1 [CW24],logD,[1],2.3
same,selectivity for OXRs compared to 40 other CNS targets,40 other CNS targets,selective
same,inhibition at 10 µM,Beta2; [4],-10.5 ± 5.4%
same,inhibition at 10 µM,Beta2; [5],-12.2%
same,inhibition at 10 µM,Beta2; [6],-5.09%
same,inhibition at 10 µM,Beta2; [7],-7.41%
same,inhibition at 10 µM,Beta2; [8],-17.3%
same,inhibition at 10 µM,M4; [4],-3.86 ± 14.8%
same,inhibition at 10 µM,M4; [5],0.88%
same,inhibition at 10 µM,M4; [6],-23.9%
same,inhibition at 10 µM,M4; [7],-3.92%
same,inhibition at 10 µM,M4; [8],11.5%
same,inhibition at 10 µM,5-HT6; [4],5.73 ± 17.3%
same,inhibition at 10 µM,5-HT6; [5],17.7%
same,inhibition at 10 µM,5-HT6; [6],23.2%
same,inhibition at 10 µM,5-HT6; [7],-12.3%
same,inhibition at 10 µM,5-HT6; [8],-5.73%
same,increase in potency compared to IPSU binding (OX2R),[2]; CW24 vs IPSU,~ 2 fold
same,IC50,"[2]; competition binding against [^125I] orexin, read-out: IC50 OX2R",1.41 µM
same,increase in potency compared to IPSU binding (OX1R),[3]; CW24 vs IPSU,~ 5 fold
same,IC50,"[3]; competition binding against [^125I] orexin, read-out: IC50 OX1R",0.253 µM
